Measured values taken from PMC4946998 (Journal of cellular physiology, 2016).
Like-named read-outs stand apart in the source and are kept apart here.

How the values were obtained:
[1] = system: MMP-1 immunoreactivity; Gr-1+ cells; conditions: WT mice, CM, topical Dex; not in MMP-8KO mice
[2] = system: corneal epithelial defect; conditions: CM; for wound healing: day 5
corneal opacity [3] = conditions: WT, CM, 2D post injury; ref Bian et al., 2016; cited from earlier work
corneal opacity [4] = conditions: CM
[5] = system: IL-1β, IL-6, CXCL1, MMPs -1,-3,-9,-13 mRNA transcripts
MMP-1 = MMP-1 (Homo sapiens, UniProt P03956); conditions: read-out: IC50 MMP-1; average of three determinations, SD <10%
Sequence of MMP-1 (P03956 100-469): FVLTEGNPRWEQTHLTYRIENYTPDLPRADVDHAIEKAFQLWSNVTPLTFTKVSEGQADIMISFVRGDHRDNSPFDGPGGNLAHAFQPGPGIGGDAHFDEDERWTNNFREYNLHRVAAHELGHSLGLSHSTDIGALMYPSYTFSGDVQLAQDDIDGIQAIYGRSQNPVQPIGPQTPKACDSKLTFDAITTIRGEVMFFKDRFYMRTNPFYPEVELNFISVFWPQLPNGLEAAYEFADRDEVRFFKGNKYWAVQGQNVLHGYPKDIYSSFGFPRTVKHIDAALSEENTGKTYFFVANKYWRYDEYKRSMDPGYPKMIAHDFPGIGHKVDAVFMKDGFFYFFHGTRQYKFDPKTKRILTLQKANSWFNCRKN

[6] = system: inflammatory cytokines and MMPs in the cornea; conditions: naïve WT mice, CAM12 IP QD for 5 days versus PBS; data not shown
MMP-3 = MMP-3 (Homo sapiens, UniProt P08254); conditions: read-out: IC50 MMP-3; average of three determinations, SD <10%
Sequence of MMP-3 (P08254 100-477): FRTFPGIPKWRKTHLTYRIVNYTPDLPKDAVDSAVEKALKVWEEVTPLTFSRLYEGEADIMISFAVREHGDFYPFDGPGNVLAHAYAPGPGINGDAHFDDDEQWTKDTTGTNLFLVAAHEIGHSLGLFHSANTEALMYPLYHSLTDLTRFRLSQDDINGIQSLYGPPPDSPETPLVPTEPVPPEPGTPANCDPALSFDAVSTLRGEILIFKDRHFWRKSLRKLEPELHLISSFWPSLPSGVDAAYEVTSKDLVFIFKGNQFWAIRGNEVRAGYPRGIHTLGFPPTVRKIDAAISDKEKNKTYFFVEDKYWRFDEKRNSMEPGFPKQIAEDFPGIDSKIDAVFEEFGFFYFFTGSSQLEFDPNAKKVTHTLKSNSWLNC

MMP-2 = MMP-2 (Homo sapiens, UniProt P08253); conditions: read-out: IC50 MMP-2; average of three determinations, SD <10%
Sequence of MMP-2 (P08253 110-660): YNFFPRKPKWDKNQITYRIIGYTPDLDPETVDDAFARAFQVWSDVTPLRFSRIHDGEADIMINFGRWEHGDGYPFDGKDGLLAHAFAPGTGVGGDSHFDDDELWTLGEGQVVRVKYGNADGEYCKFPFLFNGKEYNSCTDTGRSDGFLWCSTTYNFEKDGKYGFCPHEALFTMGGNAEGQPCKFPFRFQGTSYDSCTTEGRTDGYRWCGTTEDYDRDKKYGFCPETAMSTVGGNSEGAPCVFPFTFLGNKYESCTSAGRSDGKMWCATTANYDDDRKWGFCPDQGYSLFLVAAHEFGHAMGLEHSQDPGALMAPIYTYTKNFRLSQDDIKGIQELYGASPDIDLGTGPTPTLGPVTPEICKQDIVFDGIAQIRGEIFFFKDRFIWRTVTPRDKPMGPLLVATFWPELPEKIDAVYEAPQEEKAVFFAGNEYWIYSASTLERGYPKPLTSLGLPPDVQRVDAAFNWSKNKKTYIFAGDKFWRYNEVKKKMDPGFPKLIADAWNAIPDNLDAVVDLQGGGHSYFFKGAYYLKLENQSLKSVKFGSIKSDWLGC

MMP-8 = MMP-8 (Homo sapiens, UniProt P22894); conditions: read-out: IC50 MMP-8; average of three determinations, SD <10%
Sequence of MMP-8 (P22894 101-467, species assumed): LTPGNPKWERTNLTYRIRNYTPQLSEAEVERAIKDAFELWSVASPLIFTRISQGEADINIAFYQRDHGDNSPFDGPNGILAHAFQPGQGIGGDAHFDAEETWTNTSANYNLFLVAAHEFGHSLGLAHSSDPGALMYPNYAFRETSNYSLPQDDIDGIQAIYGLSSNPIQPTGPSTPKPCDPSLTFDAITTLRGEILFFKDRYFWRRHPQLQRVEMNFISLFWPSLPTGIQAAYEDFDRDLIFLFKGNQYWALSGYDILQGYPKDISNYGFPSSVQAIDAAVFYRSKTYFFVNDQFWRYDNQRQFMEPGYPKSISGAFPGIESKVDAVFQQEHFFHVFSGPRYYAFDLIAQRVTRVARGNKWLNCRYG

MMP-9 = MMP-9 (Homo sapiens, UniProt P14780); conditions: read-out: IC50 MMP-9; average of three determinations, SD <10%
Sequence of MMP-9 (P14780 107-707 limits assumed): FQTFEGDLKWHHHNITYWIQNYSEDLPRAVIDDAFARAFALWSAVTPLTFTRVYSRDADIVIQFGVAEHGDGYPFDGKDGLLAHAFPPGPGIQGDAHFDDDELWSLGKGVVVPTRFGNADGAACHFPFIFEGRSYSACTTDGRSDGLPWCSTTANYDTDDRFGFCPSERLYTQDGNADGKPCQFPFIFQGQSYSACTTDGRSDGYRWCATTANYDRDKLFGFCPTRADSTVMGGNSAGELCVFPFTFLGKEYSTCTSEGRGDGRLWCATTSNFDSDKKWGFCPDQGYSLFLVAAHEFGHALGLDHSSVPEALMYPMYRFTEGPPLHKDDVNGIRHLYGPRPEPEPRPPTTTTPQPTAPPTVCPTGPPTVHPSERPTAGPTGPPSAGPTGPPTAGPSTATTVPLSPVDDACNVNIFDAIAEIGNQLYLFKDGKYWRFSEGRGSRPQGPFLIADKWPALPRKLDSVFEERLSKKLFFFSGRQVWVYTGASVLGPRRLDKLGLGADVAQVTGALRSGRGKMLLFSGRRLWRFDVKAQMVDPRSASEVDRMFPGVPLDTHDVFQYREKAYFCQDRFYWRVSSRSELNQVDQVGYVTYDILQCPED

MMP-14 cd = MMP-14 cd (Homo sapiens, UniProt P50281); conditions: read-out: IC50 MMP-14; average of three determinations, SD <10%

C[C@@H]1C[C@H]2[C@@H]3CCC4=CC(=O)C=C[C@]4(C)[C@@]3(F)[C@@H](O)C[C@]2(C)[C@@]1(O)C(=O)CO [Dex, Dexamethasone]
influx of Gr-1+ cells into the wound site [1]: inhibited the influx | wound healing ([2]; Dex treated MMP-8KO mice): 40% | wound healing ([2]; Dex treated WT mice): 75% | corneal opacity score, Dex versus BSS (corneal opacity [3]): significantly lower opacity scores | corneal opacity score, Dex-treated MMP-8KO versus Dex treated WT (corneal opacity [4]; 5 days post injury): significantly higher corneal opacity scores | corneal opacity, topical Dex + vehicle IP versus topical BSS + vehicle IP (corneal opacity [4]; WT mice): significantly lower corneal opacity | cytokine and MMP transcripts, Dex versus BSS ([5]; MMP-8KO mice, CM 2D post injury): decreased IL-6, MMP-3, and MMP-9 | cytokine and MMP transcripts, Dex versus BSS ([5]; MMP-8KO mice, CM 5D post injury): decreased MMP-9 and MMP-13 | IL-1β and CXCL1 expression ([5]; MMP-8KO mice, CM, topical Dex, in contrast to WT): lost its ability to decrease IL-1β and CXCL1 expression | cytokine and MMP transcripts, Dex versus BSS ([5]; WT mice, CM 2D post injury): significantly decreased IL-6, MMPs -3, -9, -13 transcripts | cytokine and MMP transcripts, Dex versus BSS ([5]; WT mice, CM 5D): significantly decreased IL-6 and MMP-3

O=C(NO)c1ccccc1S(=O)(=O)c1ccc(-c2ccc(N3CCOCC3)cc2)cc1 [CAM12, N-Hydroxy-2-((4′-morpholino-[1,1′-biphenyl]-4-yl)sulfonyl) benzamide]
re-epithelialization, topical Dex + CAM12 IP versus Dex + vehicle IP ([2]; WT mice, 100 nM CAM12 IP QD): delayed re epithelialization | IC50 (MMP-1): 16700 nM | expression of inflammatory cytokines and MMPs in the cornea [6]: no change in expression of inflammatory cytokines and MMPs | IC50 (MMP-3): 12000 nM | IC50 (MMP-2): 24 nM | IC50 (MMP-8): 57 nM | corneal opacity score, topical Dex + CAM12 IP versus Dex + vehicle IP (corneal opacity [4]; WT mice, 100 nM CAM12 IP QD): higher corneal opacity score | IC50 (MMP-9): 2300 nM | IC50 (MMP-14 cd): 1140 nM | MMP-13 mRNA, CAM12 IP versus controls ([5]; WT mice, CM 2D and 5D, Dex topical treatment): higher MMP-13 mRNA transcripts | IL-1β, IL-6, MMP-9 mRNA, CAM12 IP versus controls ([5]; WT mice, CM 2D and 5D, both Dex and BSS topical treatment): higher expression of IL-1β, IL-6, MMP-9 | MMP-1, -3 mRNA, CAM12 IP versus controls ([5]; WT mice, CM 5D, Dex topical treatment): higher levels of MMP-1, -3
